Values quoted from earlier work as cited in patent publication US5574044A, “Muscarine antagonists” (Merck & Co., Inc., priority 1994, dated 1996).

How the values were obtained:
pupil = details: in vivo
ciliary muscle = details: in vivo
[1] = in vivo
[2] = system: smooth muscle (M3 type) receptor; details: ordinarily called M3 type but variously called type M2 or M3
eye = details: in vivo

Row | SMILES | pupil dilation (pupil) | action on the ciliary muscle / ocular focusing (ciliary muscle) | sensitization assays [1] | muscarinic selectivity and duration (muscarinic receptors) | selectivity for smooth muscle (M3 type) receptor [2] | axial elongation / enlargement of the eye (eye)
1 | CN1[C@@H]2CC[C@H]1C[C@@H](OC(=O)C(CO)c1ccccc1)C2 (stereo partly drawn) [atropine] | causes mydriases (increase of pupil size) | its action on the ciliary muscle to inhibit ocular focusing impairs near visual work like reading | test positive in sensitization assays | long-acting non-specific antimuscarinic agent |  | 
2 | C[N+]1(C)CCC(OC(=O)C(c2ccccc2)c2ccccc2)CC1 [Example 4-DAMP, 4-diphenylacetoxy-N-methylpiperadine methiodide] |  |  |  |  | relatively selective antagonist for smooth muscle | 
3 | CN1CCN(CC(=O)N2c3ccccc3C(=O)Nc3cccnc32)CC1 [pirenzepine] | far less effective at pupil dilation than atropine |  | test positive in sensitization assays |  |  | inhibits axial elongation
4 | CN1CCc2cccc3c2[C@H]1Cc1ccc(O)c(O)c1-3 [apomorphine] |  |  |  |  |  | inhibit or actually prevent the axial enlargement of the eye
